Where two headings read alike, the source gives them in different places.
Legend:
LXR β LBD protein = LXR β LBD protein (Homo sapiens (Human), UniProt P55055); assay: biochemical; format: binding
[1] = target: Gal4 DNA binding domain fused to the LBD of LXRβ in HEK293 cells (Homo sapiens (Human), UniProt P55055); assay: cell-based
[2] = target: Gal4 DNA binding domain fused to the LBD of LXRα in HEK293 cells (Homo sapiens (Human), UniProt Q13133); assay: LXR luciferase transcriptional reporter gene assay, agonist mode, LXRα; format: cell-based; details: for EC50: read-out: Cell LXRα EC50
Gal4 DNA binding domain fused to the LBD of LXRα in HEK293 cells, sequence (Q13133 209-447): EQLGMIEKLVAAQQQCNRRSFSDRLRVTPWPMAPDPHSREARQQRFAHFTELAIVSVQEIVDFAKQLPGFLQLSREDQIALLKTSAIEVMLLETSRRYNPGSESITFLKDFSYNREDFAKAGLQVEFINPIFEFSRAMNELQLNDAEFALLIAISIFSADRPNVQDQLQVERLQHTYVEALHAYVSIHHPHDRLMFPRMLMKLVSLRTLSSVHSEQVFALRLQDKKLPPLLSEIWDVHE

LXR α LBD protein = LXR α LBD protein (Homo sapiens (Human), UniProt Q13133); assay: LXR α radioligand binding assay (SPA, competition with [3H]TO901317); details: read-out: LXRα Binding Ki
LXR α LBD protein, sequence (Q13133 209-447): as above

[3] = Biological Test Example 2, agonist mode
[4] = Biological Test Example 1, read-out: LXRβ Binding Ki
[5] = Biological Test Example 2, agonist mode, read-out: Cell LXRβ EC50

LXR β LBD protein, sequence (P55055 222-460 limits assumed): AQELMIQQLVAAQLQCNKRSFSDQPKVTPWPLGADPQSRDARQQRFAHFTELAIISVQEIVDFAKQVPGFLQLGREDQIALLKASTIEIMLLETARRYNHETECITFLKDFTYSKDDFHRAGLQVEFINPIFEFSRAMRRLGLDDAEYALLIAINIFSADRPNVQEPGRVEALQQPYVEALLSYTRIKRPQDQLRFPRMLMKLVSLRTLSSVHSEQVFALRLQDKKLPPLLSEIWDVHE
Gal4 DNA binding domain fused to the LBD of LXRβ in HEK293 cells, sequence (P55055 222-460 limits assumed): as above

SMILES | Ki (LXR β LBD protein; read-out: LXRβ Binding Ki) [nM] | EC50 [1] [nM] | EC50 [2] [nM] | Cell LXRβ efficacy ([1]; agonist mode) | Cell LXRα efficacy [2] | EC50 ([2]; agonist mode) [nM] | other results
Cc1nc(N2CCN(c3ccc(F)c(S(C)(=O)=O)c3)C[C@H]2C(C)C)ncc1C(=O)N(C)CCCO [17-27, (R)-2-(4-(4-fluoro-3-(methylsulfonyl)phenyl)-2-isopropylpiperazin-1-yl)-N-(3-hydroxypropyl)-N,4-dimethylpyrimidine-5-carboxamide] | > 2500 | > 20000 | > 20000 |  |  |  | Ki (LXR α LBD protein): > 3330 nM
CCOC(=O)c1cnc(N2CCN(c3ccc(-c4nnc(C)o4)c(S(C)(=O)=O)c3)C[C@H]2C(C)C)nc1C(F)(F)F [9-11, ethyl (R)-2-(2-isopropyl-4-(4-(5-methyl-1,3,4-oxadiazol-2-yl)-3-(methylsulfonyl)phenyl)piperazin-1-yl)-4-(trifluoromethyl)pyrimidine-5-carboxylate] | 839 | 869 | > 20000 | 869 (9) % |  |  | Ki (LXR α LBD protein): 2140 nM
CCOC(=O)c1cnc(N2CCN(c3ccc(F)c(S(C)(=O)=O)c3)CC2CC(F)(F)F)nc1C (stereo not drawn) [7-22, ethyl 2-(4-(4-fluoro-3-(methylsulfonyl)phenyl)-2-(2,2,2-trifluoroethyl)piperazin-1-yl)-4-methylpyrimidine-5-carboxylate] | 17 | 191 |  | 191 (31) % | 1038 (43) % | 1040 | 
COC(=O)c1cnc(N2CCN(c3ccc(F)c(S(C)(=O)=O)c3)C[C@H]2c2ccc(F)cc2)nc1C(F)(F)F [9-9, methyl (R)-2-(4-(4-fluoro-3-(methylsulfonyl)phenyl)-2-(4-fluorophenyl)piperazin-1-yl)-4-(trifluoromethyl)pyrimidine-5-carboxylate] | 298 | 780 |  | 780 (13) % | 3041 (6) % | 3040 | 
CC(C)(O)c1cc(CN2CCN(c3cccc(S(C)(=O)=O)c3)C[C@@H]2c2ccccc2)ccc1C(F)(F)F [10-13, (S)-2-(5-((4-(3-(methylsulfonyl)phenyl)-2-phenylpiperazin-1-yl)methyl)-2-(trifluoromethyl)phenyl)propan-2-ol] | 226 | > 20000 |  |  |  | > 20000 | 
CC(F)(F)[C@H]1CC[C@@H](CN2CCN(c3cccc(S(C)(=O)=O)c3)C[C@H]2c2ccccc2)CC1 (single isomer, unassigned) [48-29] | 378 |  | 6290 | 20% | 6290 (43) % |  | EC50 ([1]; agonist mode, read-out: Cell LXRβ EC50): 1500 nM
CS(=O)(=O)c1cccc(N2CCN(C[C@@H]3CC[C@@H](C(F)(F)F)OC3)[C@@H](c3ccc(F)cc3)C2)c1 (single isomer, unassigned) [49-11] |  | 887 | 2460 |  | 2460 (42) % |  | Ki (LXR β LBD protein): 214 nM; Cell LXRβ efficacy [1, 3]: 887 (21) %
C[C@H](c1ccc(C(F)(F)F)cc1)N1CCN(c2cccc(S(C)(=O)=O)c2)C[C@@H]1c1ccccc1 (single isomer, unassigned) [46-18] |  | 1430 | 4600 |  | 4598 (45) % |  | Ki (LXR β LBD protein): 35 nM; Cell LXRβ efficacy [1]: 1434 (31) %
CC(C)[C@@H]1CN(c2ccc(F)c(S(C)(=O)=O)c2)CCN1c1ncc(C(=O)N2CC(N)C2)c(C(F)(F)F)n1 [17-4, (R)-(3-aminoazetidin-1-yl)(2-(4-(4-fluoro-3-(methylsulfonyl)phenyl)-2-isopropylpiperazin-1-yl)-4-(trifluoromethyl)pyrimidin-5-yl)methanone] | 512 | 833 |  | 833 (6) % |  | > 20000 | 
CS(=O)(=O)c1cccc(N2CCN(C[C@H]3CC[C@@]4(CC3)CC4(F)F)[C@H](c3ccccc3)C2)c1 (single isomer, unassigned) [48-70] |  |  | 9090 |  | 9091 (26) % |  | Ki (LXR β LBD protein; [4]): 750 nM; Cell LXRβ efficacy [1, 3]: 58%; EC50 [1, 5]: 3730 nM
CS(=O)(=O)c1cccc(N2CCN(C[C@@H]3C[C@H]4CC[C@@H](C3)N4CC(F)(F)F)[C@H](c3ccccc3)C2)c1 [48-75, (1R,3s,5S)-3-(((R)-4-(3-(methylsulfonyl)phenyl)-2-phenylpiperazin-1-yl)methyl)-8-(2,2,2-trifluoroethyl)-8-azabicyclo[3.2.1]octane] |  |  | > 20000 |  |  |  | Ki (LXR β LBD protein; [4]): 940 nM; Cell LXRβ efficacy [1, 3]: 21%; EC50 [1, 5]: 2400 nM
C[C@@H](c1ccc(C(F)(F)F)cc1)N1CCN(c2cccc(S(C)(=O)=O)c2)C[C@@H]1c1ccccc1 [46-16, (S)-4-(3-(methylsulfonyl)phenyl)-2-phenyl-1-((S)-1-(4-(trifluoromethyl)phenyl)ethyl)piperazine] |  | > 20000 | > 20000 |  |  |  | Ki (LXR β LBD protein): 503 nM
CS(=O)(=O)c1cccc(N2CCN(CC3CCN(CC(F)(F)F)CC3)[C@H](c3ccccc3Cl)C2)c1 [48-56, (R)-2-(2-chlorophenyl)-4-(3-(methylsulfonyl)phenyl)-1-((1-(2,2,2-trifluoroethyl)piperidin-4-yl)methyl)piperazine] | 1670 | 4010 | > 20000 |  |  |  | Cell LXRβ efficacy [1]: 4014 (16) %
CSCc1cnc(N2CCN(c3ccc(F)c(S(C)(=O)=O)c3)C[C@H]2C(C)C)nc1C(F)(F)F [15-8, (R)-2-(4-(4-fluoro-3-(methylsulfonyl)phenyl)-2-isopropylpiperazin-1-yl)-5-((methylthio)methyl)-4-(trifluoromethyl)pyrimidine] | 1 | 34 |  | 34 (35) % | 219 (44) % | 219 | 
CNS(=O)(=O)c1cc(N2CCN(c3ncc(C(C)=O)c(C(F)(F)F)n3)[C@H](C(C)C)C2)ccc1F [13-2, (R)-5-(4-(5-acetyl-4-(trifluoromethyl)pyrimidin-2-yl)-3-isopropylpiperazin-1-yl)-2-fluoro-N-methylbenzenesulfonamide] |  | 33 | 290 | 33 (58) % | 290 (73) % |  | Ki (LXR β LBD protein): 3 nM
C=C(C)c1cnc(N2CCN(c3ccc(CO)c(S(C)(=O)=O)c3)C[C@H]2C(C)C)nc1C(F)(F)F [14-2, (R)-(4-(3-isopropyl-4-(5-(prop-1-en-2-yl)-4-(trifluoromethyl)pyrimidin-2-yl)piperazin-1-yl)-2-(methylsulfonyl)phenyl)methanol] | 1 | 28 |  | 28 (42) % | 186 (63) % | 186 | 
CC(C)[C@@H]1CN(c2ccc(F)c(S(C)(=O)=O)c2)CCN1c1ncc(C(=O)N2CC(O)C2)c(C(F)(F)F)n1 [17-5, (R)-(2-(4-(4-fluoro-3-(methylsulfonyl)phenyl)-2-isopropylpiperazin-1-yl)-4-(trifluoromethyl)pyrimidin-5-yl)(3-hydroxyazetidin-1-yl)methanone] | 396 | > 20000 |  |  |  | > 20000 | 
COC(=O)c1cc(CN2CCN(c3cccc(S(C)(=O)=O)c3)CC2c2ccccc2)ccc1C(F)(F)F (stereo not drawn) [46-36, methyl 5-((4-(3-(methylsulfonyl)phenyl)-2-phenylpiperazin-1-yl)methyl)-2-(trifluoromethyl)benzoate] | 244 | 4760 |  | 4759 (14) % | 11251 (20) % | 11300 | 
CON(C)C(=O)c1cnc(N2CCN(c3ccc(F)c(S(C)(=O)=O)c3)C[C@H]2c2ccc(F)cc2)nc1C(F)(F)F [17-32, (R)-2-(4-(4-fluoro-3-(methylsulfonyl)phenyl)-2-(4-fluorophenyl)piperazin-1-yl)-N-methoxy-N-methyl-4-(trifluoromethyl)pyrimidine-5-carboxamide] |  | > 20000 |  |  |  | > 20000 | Ki (LXR β LBD protein): 435 nM
Cc1nc(N2CCN(c3ccc(F)c(S(C)(=O)=O)c3)CC2CC(F)(F)F)ncc1C(C)(C)O (stereo not drawn) [10-6, 2-(2-(4-(4-fluoro-3-(methylsulfonyl)phenyl)-2-(2,2,2-trifluoroethyl)piperazin-1-yl)-4-methylpyrimidin-5-yl)propan-2-ol] | 862 | 1310 |  |  | 9158 (22) % | 9160 | 
CC(=O)c1cnc(N2CCN(c3ccc(F)c(S(C)(=O)=O)c3)C[C@H]2c2ccc(F)cc2)nc1C(F)(F)F [13-3, (R)-1-(2-(4-(4-fluoro-3-(methylsulfonyl)phenyl)-2-(4-fluorophenyl)piperazin-1-yl)-4-(trifluoromethyl)pyrimidin-5-yl)ethan-1-one] | 88 | 360 | 2460 | 360 (18) % | 2458 (21) % |  | 
CS(=O)(=O)c1cccc(N2CCN(CC3(F)CCN(CC(F)(F)F)CC3)[C@@H](c3ccc(F)cc3)C2)c1 [48-57, (S)-1-((4-fluoro-1-(2,2,2-trifluoroethyl)piperidin-4-yl)methyl)-2-(4-fluorophenyl)-4-(3-(methylsulfonyl)phenyl)piperazine] |  | 1270 |  |  | 4500 (37) % |  | Ki (LXR β LBD protein; [4]): 492 nM; Cell LXRβ efficacy [1, 3]: 1272 (13) %; EC50 [2, 3]: 4500 nM
CS(=O)(=O)c1cccc(N2CCN(C[C@@H]3C[C@H]4CC[C@@H](C3)N4CC(F)(F)F)[C@@H](c3ccccc3)C2)c1 [48-76, (1R,3s,5S)-3-(((S)-4-(3-(methylsulfonyl)phenyl)-2-phenylpiperazin-1-yl)methyl)-8-(2,2,2-trifluoroethyl)-8-azabicyclo[3.2.1]octane] |  |  | 1390 |  | 1394 (54) % |  | Ki (LXR β LBD protein; [4]): 67 nM; Cell LXRβ efficacy [1, 3]: 27%; EC50 [1, 5]: 374 nM
